# From PubChem BioAssay (NCI)
#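 Growth conditions: 96-well plates. Treatment: test compound, 48 hours, 5 concentrations. Analysis: linear interpolation between bracketing concentrations; unreached endpoints set to highest concentration. Here, GI50 denotes the concentration required for 50% inhibition of growth. TGI marks complete inhibition of growth.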
# Experiments:
# Experiment in all cases: NCI-60 cell line screen, 48 h
# 786-0 renal = system: 786-0 renal
# A498 renal = system: A498 renal
# A549 NSCLC = system: A549 NSCLC
# ACHN renal = system: ACHN renal
# BT-549 breast = system: BT-549 breast
# CAKI-1 renal = system: CAKI-1 renal
# COLO 205 colon = system: COLO 205 colon
# DU-145 prostate = system: DU-145 prostate
# EKVX NSCLC = system: EKVX NSCLC
# HCC-2998 colon = system: HCC-2998 colon
# HCT-116 colon = system: HCT-116 colon
# HCT-15 colon = system: HCT-15 colon
# HL-60(TB) leukemia = system: HL-60(TB) leukemia
# HOP-62 NSCLC = system: HOP-62 NSCLC
# HOP-92 NSCLC = system: HOP-92 NSCLC
# HS 578T breast = system: HS 578T breast
# HT29 colon = system: HT29 colon
# IGROV1 ovarian = system: IGROV1 ovarian
# K-562 leukemia = system: K-562 leukemia
# KM12 colon = system: KM12 colon
# LOX IMVI melanoma = system: LOX IMVI melanoma
# M14 melanoma = system: M14 melanoma
# MALME-3M melanoma = system: MALME-3M melanoma
# MCF7 breast = system: MCF7 breast
# MDA-MB-231 breast = system: MDA-MB-231 breast
# MDA-MB-435 = system: MDA-MB-435
# MOLT-4 leukemia = system: MOLT-4 leukemia
# NCI-H226 lung = system: NCI-H226 lung
# NCI-H23 lung = system: NCI-H23 lung
# NCI-H460 lung = system: NCI-H460 lung
# NCI-H522 lung = system: NCI-H522 lung
# NCI/ADR-RES ovarian = system: NCI/ADR-RES ovarian
# OVCAR-3 ovarian = system: OVCAR-3 ovarian
# OVCAR-4 ovarian = system: OVCAR-4 ovarian
# OVCAR-5 ovarian = system: OVCAR-5 ovarian
# OVCAR-8 ovarian = system: OVCAR-8 ovarian
# RXF 393 renal = system: RXF 393 renal
# SF-268 CNS = system: SF-268 CNS
# SF-295 CNS = system: SF-295 CNS
# SF-539 CNS = system: SF-539 CNS
# SK-MEL-2 melanoma = system: SK-MEL-2 melanoma
# SK-MEL-28 melanoma = system: SK-MEL-28 melanoma
# SK-MEL-5 melanoma = system: SK-MEL-5 melanoma
# SK-OV-3 ovarian = system: SK-OV-3 ovarian
# SN12C renal = system: SN12C renal
# SNB-19 CNS = system: SNB-19 CNS
# SNB-75 CNS = system: SNB-75 CNS
# SR leukemia = system: SR leukemia
# SW-620 colon = system: SW-620 colon
# T-47D breast = system: T-47D breast
# TK-10 renal = system: TK-10 renal
# U251 CNS = system: U251 CNS
# UACC-257 melanoma = system: UACC-257 melanoma
# UACC-62 melanoma = system: UACC-62 melanoma
# UO-31 renal = system: UO-31 renal
smiles,measurement,setting,value
CCN(CC)CCn1c2ccc(OC)cc2c2sc3cc(OC)ccc3c(=O)c21,GI50,786-0 renal,1590 nM
same,TGI,786-0 renal,3230 nM
same,GI50,A498 renal,1120 nM
same,TGI,A498 renal,2350 nM
same,GI50,A549 NSCLC,1590 nM
same,TGI,A549 NSCLC,5710 nM
same,GI50,ACHN renal,1000 nM
same,TGI,ACHN renal,2770 nM
same,GI50,BT-549 breast,2240 nM
same,TGI,BT-549 breast,5950 nM
same,GI50,CAKI-1 renal,1650 nM
same,TGI,CAKI-1 renal,3770 nM
same,GI50,COLO 205 colon,1390 nM
same,TGI,COLO 205 colon,3320 nM
same,GI50,DU-145 prostate,1670 nM
same,TGI,DU-145 prostate,3700 nM
same,GI50,EKVX NSCLC,1600 nM
same,TGI,EKVX NSCLC,3360 nM
same,GI50,HCC-2998 colon,1480 nM
same,TGI,HCC-2998 colon,3140 nM
same,GI50,HCT-116 colon,659 nM
same,TGI,HCT-116 colon,2020 nM
same,GI50,HCT-15 colon,861 nM
same,TGI,HCT-15 colon,2660 nM
same,GI50,HL-60(TB) leukemia,1770 nM
same,TGI,HL-60(TB) leukemia,4220 nM
same,GI50,HOP-62 NSCLC,2320 nM
same,TGI,HOP-62 NSCLC,8620 nM
same,GI50,HOP-92 NSCLC,1130 nM
same,TGI,HOP-92 NSCLC,2750 nM
same,GI50,HS 578T breast,1960 nM
same,TGI,HS 578T breast,4980 nM
same,GI50,HT29 colon,1510 nM
same,TGI,HT29 colon,9120 nM
same,GI50,IGROV1 ovarian,1530 nM
same,TGI,IGROV1 ovarian,3610 nM
same,GI50,K-562 leukemia,728 nM
same,TGI,K-562 leukemia,2760 nM
same,GI50,KM12 colon,2000 nM
same,TGI,KM12 colon,4320 nM
same,GI50,LOX IMVI melanoma,1300 nM
same,TGI,LOX IMVI melanoma,2740 nM
same,GI50,M14 melanoma,1640 nM
same,TGI,M14 melanoma,3080 nM
same,GI50,MALME-3M melanoma,1590 nM
same,TGI,MALME-3M melanoma,3180 nM
same,GI50,MCF7 breast,1160 nM
same,TGI,MCF7 breast,2450 nM
same,GI50,MDA-MB-231 breast,1540 nM
same,TGI,MDA-MB-231 breast,3310 nM
same,GI50,MDA-MB-435,1730 nM
same,TGI,MDA-MB-435,3220 nM
same,GI50,MOLT-4 leukemia,383 nM
same,TGI,MOLT-4 leukemia,1890 nM
same,GI50,NCI-H226 lung,2460 nM
same,TGI,NCI-H226 lung,7490 nM
same,GI50,NCI-H23 lung,1900 nM
same,TGI,NCI-H23 lung,4340 nM
same,GI50,NCI-H460 lung,1080 nM
same,TGI,NCI-H460 lung,2520 nM
same,GI50,NCI-H522 lung,1710 nM
same,TGI,NCI-H522 lung,4220 nM
same,GI50,NCI/ADR-RES ovarian,1240 nM
same,TGI,NCI/ADR-RES ovarian,3600 nM
same,GI50,OVCAR-3 ovarian,2120 nM
same,TGI,OVCAR-3 ovarian,4540 nM
same,GI50,OVCAR-4 ovarian,1840 nM
same,TGI,OVCAR-4 ovarian,4880 nM
same,GI50,OVCAR-5 ovarian,1920 nM
same,TGI,OVCAR-5 ovarian,4920 nM
same,GI50,OVCAR-8 ovarian,1930 nM
same,TGI,OVCAR-8 ovarian,11300 nM
same,GI50,RXF 393 renal,1400 nM
same,TGI,RXF 393 renal,2790 nM
same,GI50,SF-268 CNS,1870 nM
same,TGI,SF-268 CNS,5350 nM
same,GI50,SF-295 CNS,1820 nM
same,TGI,SF-295 CNS,3450 nM
same,GI50,SF-539 CNS,1660 nM
same,TGI,SF-539 CNS,3050 nM
same,GI50,SK-MEL-2 melanoma,2100 nM
same,TGI,SK-MEL-2 melanoma,4680 nM
same,GI50,SK-MEL-28 melanoma,1700 nM
same,TGI,SK-MEL-28 melanoma,3120 nM
same,GI50,SK-MEL-5 melanoma,1740 nM
same,TGI,SK-MEL-5 melanoma,3120 nM
same,GI50,SK-OV-3 ovarian,3070 nM
same,TGI,SK-OV-3 ovarian,10300 nM
same,GI50,SN12C renal,2030 nM
same,TGI,SN12C renal,8750 nM
same,GI50,SNB-19 CNS,2430 nM
same,TGI,SNB-19 CNS,10000 nM
same,GI50,SNB-75 CNS,1110 nM
same,TGI,SNB-75 CNS,6480 nM
same,GI50,SR leukemia,704 nM
same,TGI,SR leukemia,3050 nM
same,GI50,SW-620 colon,825 nM
same,TGI,SW-620 colon,2410 nM
same,GI50,T-47D breast,2000 nM
same,TGI,T-47D breast,4890 nM
same,GI50,TK-10 renal,2330 nM
same,TGI,TK-10 renal,8150 nM
same,GI50,U251 CNS,1550 nM
same,TGI,U251 CNS,3630 nM
same,GI50,UACC-257 melanoma,1920 nM
same,TGI,UACC-257 melanoma,3940 nM
same,GI50,UACC-62 melanoma,1800 nM
same,TGI,UACC-62 melanoma,3470 nM
same,GI50,UO-31 renal,1350 nM
same,TGI,UO-31 renal,3020 nM
